Experimental findings from BindingDB's records for patent US12486274 (Verge Analytics, 2025) are described below.

This assay deals with 1-phosphatidylinositol 3-phosphate 5-kinase (Homo sapiens, UniProt Q9Y2I7). Briefly: Inhibition of PIKfyve. The protocol:
The kinase reactions were assembled in 384-well plates (Greiner) in a total volume of […] as follows. Kinase protein was pre-diluted in an assay buffer comprising 25 mM HEPES, pH 7.5, 1 mM DTT, 2.5 mM MgCl2, and 2.5 mM MnCl2, and 0.005% Triton X-100, and dispensed into a 384-well plate (10 μL per well). Test compounds were serially pre-diluted in DMSO and added to the protein samples by acoustic dispensing (Labcyte Echo). The concentration of DMSO was equalized to 1% in all samples. All test compounds were tested at 12 concentrations. Apilimod was used as a reference compound and was tested in identical manner in each assay plate. Control samples (0%-inhibition, in the absence of inhibitor, DMSO only) and 100%-inhibition (in the absence of enzyme) were assembled in replicates of four and were used to calculate %-inhibition in the presence of compounds. The reactions were initiated by addition of 10 μL of 2× PI3P/PS substrate supplemented with ATP. The final concentration of enzyme was 2 nM, the final concentration of ATP was […], and the final concentration of PI3P/PS substrate was 1 μM (PI3P). The kinase reactions were allowed to proceed for 3 h at room temperature. Following incubation, the reactions were quenched by addition of […] of termination buffer (100 mM HEPES, pH 7.5, 0.01% Triton X-100, 20 mM EDTA).

Molecules are shown by their SMILES. pIC50: −log10 of the molar value.

1-phosphatidylinositol 3-phosphate 5-kinase, sequence (Q9Y2I7 whole entry): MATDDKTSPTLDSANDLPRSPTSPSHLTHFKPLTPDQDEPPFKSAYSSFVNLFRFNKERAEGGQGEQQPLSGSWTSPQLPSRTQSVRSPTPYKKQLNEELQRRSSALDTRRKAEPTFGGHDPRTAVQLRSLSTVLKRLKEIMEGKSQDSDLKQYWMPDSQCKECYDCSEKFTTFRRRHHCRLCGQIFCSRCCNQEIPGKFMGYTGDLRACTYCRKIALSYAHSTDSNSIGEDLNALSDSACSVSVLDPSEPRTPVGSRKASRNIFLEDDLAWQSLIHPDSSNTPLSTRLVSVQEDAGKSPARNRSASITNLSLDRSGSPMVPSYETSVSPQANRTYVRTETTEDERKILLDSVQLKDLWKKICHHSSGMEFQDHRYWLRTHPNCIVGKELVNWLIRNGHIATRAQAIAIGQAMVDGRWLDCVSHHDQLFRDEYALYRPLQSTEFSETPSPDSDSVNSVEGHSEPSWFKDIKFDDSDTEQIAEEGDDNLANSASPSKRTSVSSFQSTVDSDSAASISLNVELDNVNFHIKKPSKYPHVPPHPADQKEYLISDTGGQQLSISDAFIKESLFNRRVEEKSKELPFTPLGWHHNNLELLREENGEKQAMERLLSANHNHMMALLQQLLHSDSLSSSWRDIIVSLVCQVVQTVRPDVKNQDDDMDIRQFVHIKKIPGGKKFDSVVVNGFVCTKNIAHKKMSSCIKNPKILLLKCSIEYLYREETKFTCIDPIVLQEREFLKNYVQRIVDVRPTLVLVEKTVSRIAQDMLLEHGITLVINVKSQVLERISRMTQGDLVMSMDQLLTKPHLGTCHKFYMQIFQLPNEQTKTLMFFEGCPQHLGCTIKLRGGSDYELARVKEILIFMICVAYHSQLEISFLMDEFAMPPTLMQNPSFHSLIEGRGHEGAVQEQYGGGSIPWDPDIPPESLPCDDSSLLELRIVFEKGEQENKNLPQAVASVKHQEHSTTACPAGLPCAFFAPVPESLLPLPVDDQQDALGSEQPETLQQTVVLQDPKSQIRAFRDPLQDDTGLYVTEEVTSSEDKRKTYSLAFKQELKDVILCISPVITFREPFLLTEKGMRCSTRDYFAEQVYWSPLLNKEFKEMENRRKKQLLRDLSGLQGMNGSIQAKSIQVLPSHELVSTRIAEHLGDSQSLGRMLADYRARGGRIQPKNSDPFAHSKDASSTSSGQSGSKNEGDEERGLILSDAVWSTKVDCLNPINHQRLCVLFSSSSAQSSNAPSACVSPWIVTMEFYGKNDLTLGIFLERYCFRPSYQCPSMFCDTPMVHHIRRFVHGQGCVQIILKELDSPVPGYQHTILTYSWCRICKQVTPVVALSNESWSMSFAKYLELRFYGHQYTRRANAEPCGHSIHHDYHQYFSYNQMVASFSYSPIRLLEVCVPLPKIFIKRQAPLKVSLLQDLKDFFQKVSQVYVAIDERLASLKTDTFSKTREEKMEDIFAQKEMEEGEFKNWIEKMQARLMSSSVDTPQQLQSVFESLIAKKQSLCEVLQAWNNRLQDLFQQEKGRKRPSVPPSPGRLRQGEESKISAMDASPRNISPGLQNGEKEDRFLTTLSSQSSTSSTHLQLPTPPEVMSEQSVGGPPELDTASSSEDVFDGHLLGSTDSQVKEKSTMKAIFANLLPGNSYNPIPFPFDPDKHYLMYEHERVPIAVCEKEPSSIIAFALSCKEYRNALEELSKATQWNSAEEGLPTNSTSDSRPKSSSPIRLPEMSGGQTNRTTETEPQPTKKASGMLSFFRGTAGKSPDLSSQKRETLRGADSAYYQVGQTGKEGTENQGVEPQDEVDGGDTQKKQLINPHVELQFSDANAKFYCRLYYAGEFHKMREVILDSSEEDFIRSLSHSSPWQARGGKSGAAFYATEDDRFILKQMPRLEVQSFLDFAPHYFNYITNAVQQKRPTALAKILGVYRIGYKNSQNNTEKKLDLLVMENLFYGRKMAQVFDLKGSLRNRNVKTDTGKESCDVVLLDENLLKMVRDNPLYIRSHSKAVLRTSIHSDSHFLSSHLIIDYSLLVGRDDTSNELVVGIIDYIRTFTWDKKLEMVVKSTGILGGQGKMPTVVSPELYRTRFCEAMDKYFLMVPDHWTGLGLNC

The term pIC50 denotes −log10 of the IC50, conventionally taken in molar units. As to `Nc1ccc(-c2cc3nc(-n4ccc(-c5ccccc5)n4)cc(N4CCOCC4)n3n2)cn1` [US12486274, Compound 98], the pIC50 was 7.52.
